The results in this text go back to ChEMBL document CHEMBL4673289, “Design, synthesis and biological evaluation of imidazolopyridone derivatives as novel BRD4 inhibitors” (Bioorg Med Chem, 2021).

Active and inactive are the calls of the source. No cut-off for these calls is given here.

Series [1] concerns the target T1, Bromodomain-containing protein 4 (Homo sapiens, UniProt O60885). As to the kind of experiment: Inhibition of BRD4 (unknown origin) at 1 uM preincubated for 15 mins followed by substrate addition and measured after 1 hr by AlphaScreen assay relative to control. As to conditions: time 75.0 min. In general terms: In Alpha technology, singlet oxygen from a donor bead excites a nearby acceptor bead.

Series [2] deals with T1, Bromodomain-containing protein 4. As to the kind of experiment: Inhibition of BRD4 (unknown origin) preincubated for 15 mins followed by substrate addition and measured after 1 hr by AlphaScreen assay relative to control.
In series [3] the test system is BXPC-3. As to the kind of experiment: Anticlonogenic activity against human BXPC-3 cells assessed as reduction in colony formation at 0.25 umol/L incubated for 10 days by crystal violet staining based assay. It counts as functional, cell-based. As to conditions: dose 0.25 µmol/L, time 10.0 day.
The test system of series [4] is BXPC-3. As to the kind of experiment: Inhibition of BRD4 protein expression in human BXPC-3 cells at 4 to 16 uM measured after 48 hrs by Western blot analysis. The format is functional, cell-based. As to conditions: dose 4-16 µM. On the technique in general: Immunoblotting shows a protein as a band on a membrane.
The subject of series [5] is BXPC-3. As to the kind of experiment: Cell cycle arrest in human BXPC-3 cells assessed as acumulation at G0/G1 phase by measuring downregulation of CDK2 at 4 to 16 uM measured after 48 hrs by Western blot analysis. It counts as functional, cell-based. The note with it: dose 4-16 µM.
The test system of series [6] is BXPC-3. As to the kind of experiment: Induction of apoptosis in human BXPC-3 cells assessed as downregulation of Bcl-xl at 4 to 16 uM measured after 48 hrs by Western blot analysis. It counts as functional, cell-based. The note with it: dose 4-16 µM.
For series [7], the system named is BXPC-3. As to the kind of experiment: Induction of apoptosis in human BXPC-3 cells assessed as activation of caspase 3 at 4 to 16 uM measured after 48 hrs by Western blot analysis. It counts as functional, cell-based. As to conditions: dose 4-16 µM.
The next series deals with Panc02. As to the kind of experiment: Antitumor activity against mouse Panc02 allografted in BALB/c mouse assessed as reduction in tumor weight at 50 mg/kg, ip administered every day for 20 days in combination with gemcitabine at 100 mg/kg relative to control. It counts as functional. The note with it: 480 h, time 20 day, read-out: TGI.
The nature of series [8]: Toxicity in BALB/c mouse allografted with mouse Panc02 cells assessed as effect on body weight at 50 mg/kg, ip administered every day measured after 19 days. The format is organism-based. As to conditions: in vivo, 456 h, time 19 day.
In series [9] the test system is Mus musculus. As to the kind of experiment: Decrease in c-Myc expression in BALB/c mouse allografted with mouse Panc02 cells […] at 50 mg/kg, ip administered every day in combination with gemcitabine at 100 mg/kg measured after 20 days by immunohistochemical analysis. The format is functional, organism-based. The note with it: time 20.0 day.

For series [10], the system named is Mus musculus. As to the kind of experiment: Upregulation of caspase 3 in BALB/c mouse allografted with mouse Panc02 cells […] at 50 mg/kg, ip administered every day measured after 20 days by immunohistochemical analysis. It counts as functional, organism-based. As to conditions: time 20.0 day.
Series [11] concerns Mus musculus. As to the kind of experiment: Downregulation of Ki67 expression in BALB/c mouse allografted with mouse Panc02 cells […] at 50 mg/kg, ip administered every day in combination with gemcitabine at 100 mg/kg measured after 20 days by immunohistochemical analysis. The format is functional, organism-based. The note with it: time 20.0 day.

The test system of series [12] is BXPC-3. As to the kind of experiment: Cell cycle arrest in human BXPC-3 cells assessed as acumulation at G0/G1 phase by measuring downregulation of CyclinA2 at 4 to 16 uM measured after 48 hrs by Western blot analysis. The format is functional, cell-based. As to conditions: dose 4-16 µM.

One may read the inhibition as the drop in the measured response relative to a control, in per cent. The IC50 is the concentration that inhibits the measured activity by half. The low end stands for higher potency, the high end for lower potency. `CCS(=O)(=O)Nc1ccc(Oc2ccccc2F)c(-c2cn(C)c(=O)c3cncn23)c1` yielded an inhibition in series [1] of 100%. The same compound had a concentration for half-maximal inhibition (IC50) in [2] of 35 nM. For the same compound, the result in the series on BXPC-3 [3], in the series on BXPC-3 [5], with BXPC-3 [6], in the series on BXPC-3 [7], with Mus musculus [9] and in the series with Mus musculus [10] was Active. In addition, the result in the series on Mus musculus [11] and in the series on BXPC-3 [12] was Active. In addition, the inhibition result in the series on BXPC-3 [4] is “Active”. Besides, the inhibition in vivo at 50 mg/kg in the series with Panc02 was 85%. In series [8], the Activity entry is “Non-Toxic”.
